Columns and labels:
[1] = molecular target: T1, human MOP receptor (Opioid Receptor Mu 1) (Homo sapiens, UniProt P35372); assay: Tango β-arrestin recruitment in U2OS cells, antagonist mode against DAMGO EC80, two concentrations only; type: cell-based; conditions: read-out: % Emax at 10 μM (relative to β-funaltrexamine)
T1 construct: gene OPRM1; human MOP receptor with linked TEV protease site (Tango OPRM1-bla U2OS)

[2] = molecular target: T1, human MOP receptor (Opioid Receptor Mu 1); assay: Tango β-arrestin recruitment in U2OS cells, antagonist mode against DAMGO EC80; reference antagonist; type: cell-based

T1 sequence (P35372 whole entry): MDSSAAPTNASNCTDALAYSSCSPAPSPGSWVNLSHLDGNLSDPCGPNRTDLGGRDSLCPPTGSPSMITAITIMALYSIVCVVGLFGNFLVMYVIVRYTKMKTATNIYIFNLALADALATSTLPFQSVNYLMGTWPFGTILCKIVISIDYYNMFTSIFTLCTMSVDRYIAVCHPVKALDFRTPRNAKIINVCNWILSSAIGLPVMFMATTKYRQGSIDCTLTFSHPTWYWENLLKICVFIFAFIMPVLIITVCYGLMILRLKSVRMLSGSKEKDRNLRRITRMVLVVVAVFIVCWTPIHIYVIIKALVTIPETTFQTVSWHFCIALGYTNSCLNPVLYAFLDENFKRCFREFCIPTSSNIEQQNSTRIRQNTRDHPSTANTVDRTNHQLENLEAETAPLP

| SMILES | Emax at 10 µM [1] | Emax at 10 µM [2] |
| --- | --- | --- |
| Cc1ccc(N2CCN=C2NC(=O)NC(C)CCc2ccc(F)cc2)cc1 (centres unmarked) [7i, 1-[1-(4-methylphenyl)imidazolin-2-yl]-3-[4-(4-fluorophenyl)but-2-yl]urea] | 48% | – |
| COC(=O)/C=C/C(=O)N[C@@H]1CC[C@@]2(O)[C@H]3Cc4ccc(O)c5c4[C@@]2(CCN3CC2CC2)[C@H]1O5 [β-Funaltrexamine] | – | 100% |
